Laboratory results as given in patent US20040235049A1, “Device for presentation of polypeptides able to be used as a chip for miniaturised detection of molecules” (priority 2001, published 2004).

Test system: antibodies of positive and negative sera (HCV)
Assay: Ketone-functionalised (transaminated) peptide on semicarbazide slides tested with sera
Assay type: binding, human
Conditions: 16 spots, peptide 10^−4 M
Experimental: The slides are then incubated in the presence of 100 μl of serum from patients diluted to 1/50th in the dilution buffer (PBS+2.5% of powdered semi-skimmed milk+0.5% of Tween 20) under a glass cover slip (24×60 mm). […] 4 successive washes are then effected for 3 minutes in PBS solution with 0.05% added Tween 20.
The reaction of the antibodies of patients with the polypeptides attached to the slide is detected by the binding onto these of fluorescent anti-human IgG antibodies. 100 μl of solution of anti-human IgG-A-M antibodies labelled with rhodamine (TRITC) (Jackson ImmunoResearch Laboratories, Baltimore, US) diluted to 1/100th in the dilution buffer (PBS+2.5% of powdered semi-skimmed milk+0.5% of Tween 20) are then deposited onto each slide. Each slide is then covered with a cover slip (24×60 mm) and left to incubate for 1 hours at 37° C. under a moist atmosphere. A series of 4 successive washes in PBS solution with 0.05% of added Tween 20 is carried out.
The fluorescence emitted is then detected using a slide scanner (L35/PMT 50, Affymetrix 418 Chip Scanner, MWG).
The 2 peptides HCVpc21-Met (non-transaminated) and pc21-TA (transaminated) and also the peptide HCVpc21-2 (described in Example 3) were attached to semicarbazide slides at the rate of 16 spots of each peptide per slide.
Each peptide was deposited at the concentration of 10^−4 M.
The slides were incubated in the presence of 4 positive sera and 2 negative sera.

H-MTNRRPQDVKFPGGGQIVGGVYLLPRRGPRLG-NH2 [pc21-Met, non-transaminated control peptide]
Mean Fluorescence (Serum 41, ELISA o.d. 1.4): 960 | Mean Fluorescence (Serum 43, ELISA o.d. 1.7): 2810 | Mean Fluorescence (Serum 45, ELISA o.d. 0.7): 356 | Mean Fluorescence (Serum 48, negative): 59 | Mean Fluorescence (Serum 53, ELISA o.d. 2.7): 7741 | Mean Fluorescence (Serum 55, negative): 55
